Measured values published in patent US20060018833A1, “Method and system for screening compounds for muscular and/or neurological activity in animals” (priority 2004, published 2006).

What was measured:
[1] = test system: teleosts; experiment: Electrically induced seizures in teleost fish, blocking by anticonvulsants; format: in vivo, teleost (Medaka); conditions: compound in the water, "(10-80 μM)" printed after phenytoin
Excerpt: Consistent electrical-induced seizures are achieved by optimizing both maximum voltage achieved, overall power delivered during relatively constant current. Electrodes are placed in the wells from above just prior to commencement of the test.
Convulsions are produced by the placing a circular array of 6 stainless steal wire electrodes (around 100 μm in outside diameter) around the perimeter of a single well in a 48 well plate. The electrodes are insulated to the tips on the side of the electrodes that face the inside of the well. In this way the fish is less likely to contact the metal of the electrode that faces the well wall. A seizure is evoked by the application of a constant duration pulse of a constant current sine wave oscillating voltage field. The amount of current applied depends on the electrical impedance of the arrangement. In general around 30 mA of current at around 70 RMS volts is sufficient to produce a reliable seizure in a 2-3 week old Medaka fish. During the pulse the output is randomly scrambled to opposing pairs of the six electrodes via a high voltage MUX circuit. The electronics to produce the above stimulation are apparent to person skilled at the art.
The application of sufficient electrical current to the water containing a fish will evoke a behavioral response. However, at a specific range of current/voltage settings (30-110 V; 20 mA-0.1 mA) an animal will have a seizure, experience a post-ictal period of quiescence and recover. […] Application of a battery of classic anticonvulsants known to block seizure generation in animals will block the expression of seizures in teleost.

[2] = test system: Medaka; experiment: Determining convulsive dose of convulsant added to well water (Medaka); format: in vivo; conditions: 20 mM PTZ solution added at 0.1 ml per minute to 5 ml tank water
Protocol: (§1) To establish the minimum seizure threshold dose (CD50) for convulsant agents 5 ml of tank water is placed a single well of a 12-well plate. A single juvenile teleost is placed in the well and allowed to acclimate for a period of time in a darkened room. When the animal has acclimated to the new conditions, a solution containing convulsant (e.g. a 20 mM solution of pentylenetetrazol (PTZ) in tank water) is added to the well at a rate of 0.1 ml per minute. The amount of solution being added is constant. The behavior of the fish is then monitored continuously during the rest period beginning with the addition of the convulsant. At the point which the animal has a convulsion the addition is stopped and the animal removed. […] This dose is considered the convulsive dose (>97%) for teleost.

[3] = test system: Medaka fish; experiment: Chemically (PTZ) induced seizure activity in Medaka fish, anticonvulsant screen (FIG. 5); format: in vivo
Protocol: One embodiment of the screen for anticonvulsant activity in the presence of a chemical stimulus includess placing a single or plurality of adult (1 month) fish into each well of a 12 well plate. This well contains 4 ml of pure tank water with a defined pH (7.0 can be between 6-8), hardness (90 ppm). The test compounds are then applied to the wells in 12 concentrations ranging from 10 μM to 10 mM. The compounds are diluted from standard DMSO stock solutions stored in other multiwell plates. Test compounds are added as either tank water diluted solutions or as DMSO concentrates. […] The compounds are added to wells after the optical clarity (transmittance) of the well water is determined. Following addition of the compounds to the wells a second transmittance measure is made to determine if the compound has dropped out of solution at any of the concentrations. […] Highly insoluble compounds are solublized in cyclodextrins or mixed with wet fish food, dried and applied at a known amount to wells containing a fish that was not fed for a day.
Plates containing soluble compounds are covered with plastic tops from the manufacturer and placed in an incubator set around 27 degrees centigrade and an oxygen rich atmosphere. […] Fish are examined by the operator for deaths and they are scored as such.
Testing is performed in a visible light darkened, sound dampened room upon a highly diffused infrared light box. […] Excess or erratic activity is automatically determined by a computer algorhythim during a 20 minute control period. […]
The image sequence collected following the administration is examined by a computer program which determines a number of factors about the activity of the fish including orientation, location, distance traveled, and cross sectional area of the fish's silhouette. […] Activity levels reaching specific thresholds and the type of activity (circular swimming and erratic darting) are scored along with periods of quiescence. […] The latency to first seizure and the magnitude and frequency of seizures are scored for each well. […]

[4] = test system: zebrafish; experiment: Determining convulsive dose of convulsant added to well water (zebrafish); format: in vivo
Protocol: as §1, with “A single juvenile teleost is placed in the well and allowed to acclimate for a period of time in a darkened room.” left out

For `NCC1(CC(=O)O)CCCCC1` [gabapentin], the “blocking seizure specific behavioral movements following electrical stimulation” value [1] was “capable of blocking seizure specific behavioral movements”.

For `NC(=O)N1c2ccccc2C=Cc2ccccc21` [Carbamazepine], the “blocking seizure specific behavioral movements following electrical stimulation” value [1] was “capable of blocking seizure specific behavioral movements”.

`C1CCc2nnnn2CC1` [PTZ, pentylenetetrazol] was tested, and the “terminal concentration at which the animal has a convulsion (minimum seizure threshold dose, CD50)” value [2] was 10 mM, the “seizure in well with convulsant only” value ([3]; FIG. 5 lower left well, 6 mM PTZ) was “has seizure” and the “seizure evoked, share of fish” value ([4]; adult zebrafish immersed in 5 mM PTZ, within 30 minutes of addition, 10 fish) was 100%. The “terminal concentration at which the animal has a convulsion (minimum seizure threshold dose, CD50)” value ([4]; zebrafish, 20 mM PTZ solution added at 0.1 ml per minute to 5 ml tank water) was “around 6 mM”.

For `CCCC(CCC)C(=O)O` [Valproate, valproic acid], the “seizure in well with convulsant and anticonvulsant” value ([3]; FIG. 5 lower right well, 6 mM PTZ and Valproate 5 mM) was “Only the fish in the lower left well has seizure” and the “seizure in well with anticonvulsant only” value ([3]; FIG. 5 upper right well, only valproate 5 mM, no convulsant) was “Only the fish in the lower left well has seizure”.

For `O=C1NC(=O)C(c2ccccc2)(c2ccccc2)N1` [phenytoin], the “blocking seizure specific behavioral movements following electrical stimulation” value [1] was “capable of blocking seizure specific behavioral movements”.

`NC(=O)OCC(COC(N)=O)c1ccccc1` [felbamate] was tested, and the “blocking seizure specific behavioral movements following electrical stimulation” value [1] was “capable of blocking seizure specific behavioral movements”.
